How the values were obtained:
Assay in all cases: relative viability (nuclei count vs DMSO), 5 days (fraction); higher = more cells survive
AGI-6780 + Bortezomib = compound: O=C(Nc1cccc(C(F)(F)F)c1)Nc1cc(S(=O)(=O)NC2CC2)ccc1-c1ccsc1 [AGI-6780] + CC(C)C[C@H](NC(=O)[C@H](Cc1ccccc1)NC(=O)c1cnccn1)B(O)O [Bortezomib] (partner 0.002 µM)
Method in brief: (§1)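 The day after seeding in 1536-well plates, lung cancer cell lines were treated by pin tool with a single drug, or with a fixed anchor-drug dose together with five library-drug doses (not always all listed) in √10 steps. After 5 days, a combined fix-and-stain solution (final 0.05% Triton X-100, 1% formaldehyde, 1 ug/ml Hoechst) was added. Nuclei counted on 4× images gave relative viability as treated counts over vehicle counts, reported as the median of duplicate plates.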

AGI-6780 + Tozasertib = compound: O=C(Nc1cccc(C(F)(F)F)c1)Nc1cc(S(=O)(=O)NC2CC2)ccc1-c1ccsc1 [AGI-6780] + Cc1cc(Nc2cc(N3CCN(C)CC3)nc(Sc3ccc(NC(=O)C4CC4)cc3)n2)n[nH]1 [Tozasertib] (partner 0.1 µM)
Method in brief: as §1

AGI-6780 + AZD7762 = compound: O=C(Nc1cccc(C(F)(F)F)c1)Nc1cc(S(=O)(=O)NC2CC2)ccc1-c1ccsc1 [AGI-6780] + NC(=O)Nc1cc(-c2cccc(F)c2)sc1C(=O)N[C@H]1CCCNC1 [AZD7762] (partner 0.2 µM)
Method in brief: as §1

AGI-6780 + Decitabine = compound: O=C(Nc1cccc(C(F)(F)F)c1)Nc1cc(S(=O)(=O)NC2CC2)ccc1-c1ccsc1 [AGI-6780] + Nc1ncn([C@H]2C[C@H](O)[C@@H](CO)O2)c(=O)n1 [Decitabine] (partner 2 µM)
Method in brief: as §1

Cell Line	relative viability (AGI-6780 + Bortezomib; first compound 0.08 µM)	relative viability (AGI-6780 + Bortezomib; first compound 0.253 µM)	relative viability (AGI-6780 + Bortezomib; first compound 0.8 µM)	relative viability (AGI-6780 + Bortezomib; first compound 2.53 µM)	relative viability (AGI-6780 + Bortezomib; first compound 8 µM)	relative viability (AGI-6780 + Tozasertib; first compound 0.08 µM)	relative viability (AGI-6780 + Tozasertib; first compound 0.253 µM)	relative viability (AGI-6780 + Tozasertib; first compound 0.8 µM)	relative viability (AGI-6780 + Tozasertib; first compound 2.53 µM)	relative viability (AGI-6780 + Tozasertib; first compound 8 µM)	relative viability (AGI-6780 + AZD7762; first compound 0.08 µM)	relative viability (AGI-6780 + AZD7762; first compound 0.253 µM)	relative viability (AGI-6780 + AZD7762; first compound 0.8 µM)	relative viability (AGI-6780 + AZD7762; first compound 2.53 µM)	relative viability (AGI-6780 + AZD7762; first compound 8 µM)	relative viability (AGI-6780 + Decitabine; first compound 0.08 µM)	relative viability (AGI-6780 + Decitabine; first compound 0.253 µM)	relative viability (AGI-6780 + Decitabine; first compound 0.8 µM)	relative viability (AGI-6780 + Decitabine; first compound 2.53 µM)	relative viability (AGI-6780 + Decitabine; first compound 8 µM)
HCC-44	0.927	0.887	0.884	0.843	0.928	0.831	1.02	1.25	0.981	0.814	0.916	1.11	1.04	1.07	1.04	0.926	0.977	0.997	0.94	0.968
NCI-H1734	1.08	0.968	1.03	–	0.935	0.22	0.294	0.246	0.242	0.268	0.634	0.589	0.618	0.451	0.606	0.506	0.566	0.528	0.372	0.48
LXF-289	1.02	0.993	0.976	1.03	0.957	0.201	0.225	0.152	0.131	0.25	1.16	1.17	1.11	1.37	0.991	0.33	0.393	0.358	0.311	0.366
A-427	1.13	1.02	1.06	0.917	0.991	0.264	0.217	0.19	0.154	0.168	–	0.706	0.806	0.766	0.783	–	0.538	0.573	0.508	0.527
NCI-H460	1.18	1.09	1.21	1.08	1.05	0.537	0.453	0.491	0.349	0.176	0.444	0.671	0.684	0.726	0.564	0.547	0.453	0.552	0.446	0.512
EKVX	1.12	1.07	1.05	0.697	0.958	0.349	0.39	0.412	0.335	0.366	0.675	0.728	0.806	0.681	0.641	0.347	0.343	0.363	0.324	0.432
HCC-78	0.479	0.432	0.739	0.626	0.581	–	0.404	0.452	0.304	0.438	0.978	0.697	0.837	0.684	0.681	0.604	0.695	0.708	0.661	0.688
NCI-H441	0.514	0.601	0.831	0.45	0.387	0.608	0.733	0.474	0.415	0.599	1.33	1.35	1.43	1.2	1.39	0.221	0.28	0.25	0.204	0.241
EMC-BAC-2	1.14	1.03	1.1	0.856	1.14	0.278	0.295	0.249	0.253	0.324	–	1.15	1.16	0.877	1.02	–	1.01	0.927	0.855	1.04
NCI-H1755	1.01	0.98	0.967	0.83	1.01	0.664	0.627	0.517	0.436	0.557	0.478	0.417	0.485	0.419	0.435	0.718	0.758	0.691	0.604	0.689
ABC-1	0.295	0.35	0.335	0.262	0.378	0.186	0.212	0.17	0.206	0.167	0.774	0.967	0.891	–	1.08	–	1.42	0.87	1.05	0.924
NCI-H647	1	1.01	0.735	1.05	1.41	0.299	0.302	0.37	0.181	0.281	0.425	0.484	0.827	0.401	0.589	0.438	0.478	0.411	0.297	0.401
H3255	0.572	0.739	0.836	0.69	0.865	0.593	0.52	0.462	0.585	0.552	0.834	0.918	1.05	1.01	0.875	0.54	0.612	0.719	–	0.542
NCI-H596	–	1.04	0.761	0.918	1.13	0.839	0.898	0.725	–	0.983	1.18	1.06	1.1	0.891	1.01	1.65	0.981	0.991	0.73	0.924
NCI-H1915	1.02	1	0.912	0.955	0.972	0.432	0.418	0.469	0.282	0.428	0.715	0.713	0.729	0.637	0.698	0.276	0.267	0.283	0.255	0.26
NCI-H650	0.835	0.926	0.882	0.751	0.961	0.749	0.747	0.72	0.642	0.7	0.81	1.05	1.24	0.92	1.07	0.288	0.296	0.377	0.33	0.296
NCI-H1355	1.23	1.28	1.21	1.02	1.24	0.594	0.575	0.562	0.41	0.45	0.792	0.812	0.769	0.663	0.655	0.353	0.419	0.357	0.34	0.355

Cell Line	relative viability (AGI-6780 + Bortezomib; first compound 0.08 µM)	relative viability (AGI-6780 + Bortezomib; first compound 0.253 µM)	relative viability (AGI-6780 + Bortezomib; first compound 0.8 µM)	relative viability (AGI-6780 + Bortezomib; first compound 2.53 µM)	relative viability (AGI-6780 + Bortezomib; first compound 8 µM)	relative viability (AGI-6780 + Tozasertib; first compound 0.08 µM)	relative viability (AGI-6780 + Tozasertib; first compound 0.253 µM)	relative viability (AGI-6780 + Tozasertib; first compound 0.8 µM)	relative viability (AGI-6780 + Tozasertib; first compound 2.53 µM)	relative viability (AGI-6780 + Tozasertib; first compound 8 µM)	relative viability (AGI-6780 + AZD7762; first compound 0.08 µM)	relative viability (AGI-6780 + AZD7762; first compound 0.253 µM)	relative viability (AGI-6780 + AZD7762; first compound 0.8 µM)	relative viability (AGI-6780 + AZD7762; first compound 2.53 µM)	relative viability (AGI-6780 + AZD7762; first compound 8 µM)	relative viability (AGI-6780 + Decitabine; first compound 0.08 µM)	relative viability (AGI-6780 + Decitabine; first compound 0.253 µM)	relative viability (AGI-6780 + Decitabine; first compound 0.8 µM)	relative viability (AGI-6780 + Decitabine; first compound 2.53 µM)	relative viability (AGI-6780 + Decitabine; first compound 8 µM)
HOP-62	0.496	0.818	0.737	1.02	0.763	0.328	0.366	0.398	0.302	0.408	0.659	0.592	0.826	0.846	0.82	0.199	0.264	0.235	0.25	0.218
NCI-H23	1.08	1.2	1.02	0.86	1.19	0.347	0.365	0.35	0.379	0.343	0.259	0.24	0.23	0.294	0.23	0.3	0.327	0.285	0.294	0.313
EPLC-272H	0.905	1.03	0.901	0.766	1.03	–	0.307	0.281	0.187	0.257	0.2	0.369	0.345	0.278	0.219	0.405	0.348	0.359	0.372	0.374
NCI-H2347	0.557	0.947	0.858	1.23	1.19	0.596	0.644	0.518	0.373	0.644	0.766	0.78	0.538	0.867	0.929	0.706	0.62	0.553	0.643	0.65
LCLC-103H	1.11	1.17	1.02	0.939	1.18	0.492	0.475	0.51	0.451	0.562	0.716	0.812	0.712	0.647	0.792	0.768	0.824	0.714	0.726	0.753
HCC-366	1.1	1.06	1.03	1.02	1.11	0.102	0.184	0.0941	0.0598	0.0437	0.232	0.293	0.34	0.35	0.193	0.341	0.304	0.39	0.308	0.355
NCI-H3122	1.11	1	1.05	1.05	0.999	0.373	0.398	0.445	0.298	0.389	0.983	1.08	1	0.91	1.05	0.447	0.411	0.42	0.331	0.498
NCI-H2087	0.824	0.958	0.77	0.997	0.879	0.288	0.213	0.224	0.27	0.284	1.42	1.43	1.34	1.64	1.47	0.329	0.272	0.326	0.243	0.235
LC-2-ad	1.02	1.05	0.994	1.04	1.01	0.433	0.477	0.447	0.327	0.468	0.895	0.885	0.921	0.877	0.859	0.835	0.804	0.791	0.868	0.793
HARA	1.24	1.09	0.948	1.19	1.16	0.0824	0.106	0.114	0.0867	0.111	0.541	0.611	0.223	0.367	0.313	0.481	0.446	0.513	0.402	0.61
NCI-H727	1.08	0.987	0.786	0.648	0.819	0.583	0.568	0.669	0.722	0.681	0.45	0.536	0.65	0.589	0.749	0.939	0.95	0.857	0.951	0.897
LCLC-97TM1	0.867	0.78	0.871	0.528	0.68	0.217	0.265	0.291	0.195	0.197	0.276	0.279	0.445	0.31	0.303	0.221	0.219	0.304	0.19	0.231
LU99A	1.11	1.04	0.99	0.92	1.26	0.237	0.275	0.294	0.237	0.299	0.404	0.422	0.45	0.345	0.421	0.889	1.09	0.903	0.805	0.988
NCI-H1651	0.831	0.988	1	0.893	0.957	0.785	0.601	0.591	0.429	0.693	0.42	0.495	0.463	0.518	0.434	0.557	0.627	0.619	0.535	0.653
NCI-H322M	1.08	1.15	1.35	1.27	1.39	0.517	0.508	0.493	0.425	0.515	–	0.767	0.551	0.555	0.653	–	0.799	0.68	0.612	0.708
ChaGo-K-1	0.772	1.02	1.08	1.01	0.932	0.238	0.229	0.221	0.197	0.222	0.851	0.932	0.932	0.812	0.919	0.507	0.534	0.512	0.455	0.425
